Legend:
Type in all cases: in vivo
rice (Oryza saliva) = test: Test C flooded paddy test; conditions: for Rice plant response rating: Flooded Paddy, scale 0 to 100, 0 no effect, 100 complete control; for Plant response rating, Rice: flooded paddy test, scale 0 to 100 (0 no effect, 100 complete control)
How it was run: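 Visually assessed vs untreated controls 12–14 d post-treatment (greenhouse). Flooded paddy plants were at the 2-leaf stage; scale 0 = no effect, 100 = complete control.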

Sunflower [1] = test: Test C preemergence; conditions: Rate 500 g/ha, visual evaluation after 12 to 14 days
Sunflower [2] = test: Test C preemergence; conditions: scale 0 to 100
corn (Zea mays) = test: Test C postemergence
How it was run: (§1)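 Test chemicals, formulated in a non-phytotoxic solvent mixture with surfactant, were applied preemergence to planted seeds or postemergence to plants 2 to 18 cm tall (1- to 4-leaf stage). After 12 to 14 days in a greenhouse, injury was visually rated against untreated controls on a 0–100 scale.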

[3] = system: velvetleaf (Abutilon theophrasti); test: Test C postemergence
How it was run: as §1

[4] = system: lambsquarters (Chenopodium album); test: Test C postemergence
How it was run: as §1

[5] = system: yellow nutsedge (Cyperus esculentus); test: Test C postemergence
How it was run: as §1

[6] = system: bermudagrass (Cynodon dactylon); test: Test C postemergence
How it was run: as §1

[7] = system: goosegrass (Eleusine indica); test: Test C postemergence
How it was run: as §1

[8] = system: giant foxtail (Setaria faberii); test: Test C postemergence
How it was run: as §1

[9] = system: Surinam grass (Brachiaria decumbens); test: Test C postemergence
How it was run: as §1

[10] = system: morningglory (Ipomoea hederacea); test: Test C postemergence
How it was run: as §1

[11] = system: chickweed (Stellaria media); test: Test C postemergence
How it was run: as §1

[12] = Rate 250 g/ha, scale 0 to 100 (0 no effect, 100 complete control)
[13] = Rate 500 g/ha, scale 0 to 100 (0 no effect, 100 complete control)
[14] = Rate 125 g/ha, scale 0 to 100, 0 no effect, 100 complete control

COc1cc(N2CCC(n3ccc(C(C)C)n3)C2=O)ccc1Cl (stereo not shown) [Compound 120]
Rice plant response rating (rice (Oryza saliva); Rate 250 g/ha): 30 | Rice plant response rating (rice (Oryza saliva); Rate 500 g/ha): 80 | Plant response rating, Rice (rice (Oryza saliva); Rate 62 g/ha): 0 | Plant response rating, Rice (rice (Oryza saliva); Rate 125 g/ha): 20 | Plant response rating (0 to 100), Sunflower (Sunflower [1]): 100 | Plant response rating, Sunflower (Sunflower [2]; Rate 62 g/ha): 60 | Plant response rating, Corn (corn (Zea mays); Rate 62 g/ha, scale 0 to 100): 30 | Plant response rating, Corn (corn (Zea mays); [12]): 30 | Plant response rating, Corn (corn (Zea mays); [13]): 50 | Plant response rating, Corn (corn (Zea mays); scale 0 to 100): 30 | Plant response rating, Velvetleaf ([3]; Rate 62 g/ha, scale 0 to 100): 0 | Plant response rating, Velvetleaf [3, 12]: 0 | Plant response rating, Velvetleaf [3, 13]: 0 | Plant response rating, Velvetleaf ([3]; scale 0 to 100): 0 | Plant response rating, Lambsquarters ([4]; Rate 62 g/ha, scale 0 to 100): 50 | Plant response rating, Lambsquarters [4, 12]: 90 | Plant response rating, Lambsquarters [4, 13]: 100 | Plant response rating, Nutsedge ([5]; Rate 62 g/ha, scale 0 to 100): 0 | Plant response rating, Nutsedge [5, 12]: 0 | Plant response rating, Nutsedge [5, 13]: 50 | Plant response rating, Bermudagrass ([6]; Rate 62 g/ha, scale 0 to 100): 0 | Plant response rating, Bermudagrass [6, 14]: 0 | Plant response rating, Bermudagrass [6, 12]: 0 | Plant response rating, Bermudagrass [6, 13]: 70 | Plant response rating, Goosegrass ([7]; Rate 62 g/ha, scale 0 to 100): 0 | Plant response rating, Goosegrass [7, 12]: 0 | Plant response rating, Goosegrass [7, 13]: 60 | Plant response rating, Foxtail, Giant ([8]; Rate 62 g/ha, scale 0 to 100): 0 | Plant response rating, Foxtail, Giant [8, 12]: 0 | Plant response rating, Foxtail, Giant [8, 13]: 70 | Plant response rating, Surinam grass ([9]; Rate 62 g/ha, scale 0 to 100): 0 | Plant response rating, Surinam grass [9, 14]: 0 | Plant response rating, Surinam grass [9, 12]: 0 | Plant response rating, Surinam grass [9, 13]: 0 | Plant response rating, Morningglory ([10]; Rate 62 g/ha, scale 0 to 100): 0 | Plant response rating, Morningglory [10, 12]: 90 | Plant response rating, Morningglory [10, 13]: 100

Cc1ccc(N2CCC(n3ccc(C(C)(C)C)n3)C2=O)cc1I (stereo not shown) [Compound 122]
Rice plant response rating (rice (Oryza saliva); Rate 250 g/ha): 0 | Rice plant response rating (rice (Oryza saliva); Rate 500 g/ha): 0 | Plant response rating, Rice (rice (Oryza saliva); Rate 62 g/ha): 0 | Plant response rating, Rice (rice (Oryza saliva); Rate 125 g/ha): 0 | Plant response rating (0 to 100), Sunflower (Sunflower [1]): 30 | Plant response rating, Sunflower (Sunflower [2]; Rate 62 g/ha): 0 | Plant response rating, Corn (corn (Zea mays); Rate 62 g/ha, scale 0 to 100): 0 | Plant response rating, Corn (corn (Zea mays); [12]): 0 | Plant response rating, Corn (corn (Zea mays); [13]): 0 | Plant response rating, Corn (corn (Zea mays); scale 0 to 100): 0 | Plant response rating, Velvetleaf ([3]; Rate 62 g/ha, scale 0 to 100): 0 | Plant response rating, Velvetleaf [3, 12]: 0 | Plant response rating, Velvetleaf [3, 13]: 20 | Plant response rating, Velvetleaf ([3]; scale 0 to 100): 0 | Plant response rating, Lambsquarters ([4]; Rate 62 g/ha, scale 0 to 100): 100 | Plant response rating, Lambsquarters [4, 12]: 100 | Plant response rating, Lambsquarters [4, 13]: 100 | Plant response rating, Nutsedge ([5]; Rate 62 g/ha, scale 0 to 100): 0 | Plant response rating, Nutsedge [5, 12]: 0 | Plant response rating, Nutsedge [5, 13]: 0 | Plant response rating, Bermudagrass ([6]; Rate 62 g/ha, scale 0 to 100): 0 | Plant response rating, Bermudagrass [6, 14]: 0 | Plant response rating, Bermudagrass [6, 12]: 0 | Plant response rating, Bermudagrass [6, 13]: 0 | Plant response rating, Goosegrass ([7]; Rate 62 g/ha, scale 0 to 100): 0 | Plant response rating, Goosegrass [7, 12]: 0 | Plant response rating, Goosegrass [7, 13]: 0 | Plant response rating, Foxtail, Giant ([8]; Rate 62 g/ha, scale 0 to 100): 0 | Plant response rating, Foxtail, Giant [8, 12]: 0 | Plant response rating, Foxtail, Giant [8, 13]: 40 | Plant response rating, Surinam grass ([9]; Rate 62 g/ha, scale 0 to 100): 0 | Plant response rating, Surinam grass [9, 14]: 0 | Plant response rating, Surinam grass [9, 12]: 0 | Plant response rating, Surinam grass [9, 13]: 0 | Plant response rating, Morningglory ([10]; Rate 62 g/ha, scale 0 to 100): 20 | Plant response rating, Morningglory [10, 12]: 90 | Plant response rating, Morningglory [10, 13]: 100

CCC(CC)c1ccn(C2CCN(c3ccc(C)c(OC)c3)C2=O)n1 (stereo not shown) [Compound 81]
Rice plant response rating (rice (Oryza saliva); Rate 250 g/ha): 80 | Rice plant response rating (rice (Oryza saliva); Rate 500 g/ha): 80 | Plant response rating, Rice (rice (Oryza saliva); Rate 62 g/ha): 0 | Plant response rating, Rice (rice (Oryza saliva); Rate 125 g/ha): 0 | Plant response rating, Sunflower (Sunflower [2]; Rate 31 g/ha): 0 | Plant response rating, Corn (corn (Zea mays); Rate 31 g/ha, scale 0 to 100): 0 | Plant response rating, Corn (corn (Zea mays); Rate 62 g/ha, scale 0 to 100): 0 | Plant response rating, Corn (corn (Zea mays); [14]): 0 | Plant response rating, Corn (corn (Zea mays); [12]): 0 | Plant response rating, Velvetleaf ([3]; Rate 31 g/ha, scale 0 to 100): 20 | Plant response rating, Velvetleaf ([3]; Rate 62 g/ha, scale 0 to 100): 20 | Plant response rating, Velvetleaf [3, 14]: 20 | Plant response rating, Velvetleaf [3, 12]: 20 | Plant response rating, Chickweed ([11]; Rate 31 g/ha, scale 0 to 100): 0 | Plant response rating, Chickweed ([11]; Rate 62 g/ha, scale 0 to 100): 20 | Plant response rating, Chickweed [11, 14]: 20 | Plant response rating, Chickweed [11, 12]: 60 | Plant response rating, Lambsquarters ([4]; Rate 31 g/ha, scale 0 to 100): 0 | Plant response rating, Lambsquarters ([4]; Rate 62 g/ha, scale 0 to 100): 60 | Plant response rating, Lambsquarters [4, 12]: 80 | Plant response rating, Nutsedge ([5]; Rate 31 g/ha, scale 0 to 100): 0 | Plant response rating, Nutsedge ([5]; Rate 62 g/ha, scale 0 to 100): 0 | Plant response rating, Nutsedge [5, 14]: 0 | Plant response rating, Nutsedge [5, 12]: 0 | Plant response rating, Bermudagrass ([6]; Rate 31 g/ha, scale 0 to 100): 0 | Plant response rating, Bermudagrass ([6]; Rate 62 g/ha, scale 0 to 100): 0 | Plant response rating, Bermudagrass [6, 14]: 0 | Plant response rating, Bermudagrass [6, 12]: 0 | Plant response rating, Goosegrass ([7]; Rate 31 g/ha, scale 0 to 100): 0 | Plant response rating, Goosegrass ([7]; Rate 62 g/ha, scale 0 to 100): 0 | Plant response rating, Goosegrass [7, 14]: 0 | Plant response rating, Goosegrass [7, 12]: 20 | Plant response rating, Foxtail, Giant ([8]; Rate 31 g/ha, scale 0 to 100): 0 | Plant response rating, Foxtail, Giant ([8]; Rate 62 g/ha, scale 0 to 100): 0 | Plant response rating, Foxtail, Giant [8, 14]: 0 | Plant response rating, Foxtail, Giant [8, 12]: 0 | Plant response rating, Surinam grass ([9]; Rate 31 g/ha, scale 0 to 100): 0 | Plant response rating, Surinam grass ([9]; Rate 62 g/ha, scale 0 to 100): 0 | Plant response rating, Surinam grass [9, 14]: 0 | Plant response rating, Surinam grass [9, 12]: 0 | Plant response rating, Morningglory ([10]; Rate 31 g/ha, scale 0 to 100): 50 | Plant response rating, Morningglory ([10]; Rate 62 g/ha, scale 0 to 100): 60 | Plant response rating, Morningglory [10, 14]: 80 | Plant response rating, Morningglory [10, 12]: 80

CCCC(C)c1ccn(C2CCN(c3ccc(Cl)c(OC)c3)C2=O)n1 (stereo not shown) [Compound 121]
Rice plant response rating (rice (Oryza saliva); Rate 250 g/ha): 0 | Rice plant response rating (rice (Oryza saliva); Rate 500 g/ha): 0 | Plant response rating, Rice (rice (Oryza saliva); Rate 125 g/ha): 0 | Plant response rating (0 to 100), Sunflower (Sunflower [1]): 70 | Plant response rating, Sunflower (Sunflower [2]; Rate 62 g/ha): 10 | Plant response rating, Corn (corn (Zea mays); Rate 62 g/ha, scale 0 to 100): 0 | Plant response rating, Corn (corn (Zea mays); [12]): 0 | Plant response rating, Corn (corn (Zea mays); [13]): 40 | Plant response rating, Corn (corn (Zea mays); scale 0 to 100): 0 | Plant response rating, Velvetleaf ([3]; Rate 62 g/ha, scale 0 to 100): 0 | Plant response rating, Velvetleaf [3, 12]: 20 | Plant response rating, Velvetleaf [3, 13]: 40 | Plant response rating, Velvetleaf ([3]; scale 0 to 100): 0 | Plant response rating, Lambsquarters ([4]; Rate 62 g/ha, scale 0 to 100): 90 | Plant response rating, Lambsquarters [4, 12]: 100 | Plant response rating, Lambsquarters [4, 13]: 100 | Plant response rating, Nutsedge ([5]; Rate 62 g/ha, scale 0 to 100): 0 | Plant response rating, Nutsedge [5, 12]: 0 | Plant response rating, Nutsedge [5, 13]: 0 | Plant response rating, Bermudagrass ([6]; Rate 62 g/ha, scale 0 to 100): 0 | Plant response rating, Bermudagrass [6, 14]: 0 | Plant response rating, Bermudagrass [6, 12]: 0 | Plant response rating, Bermudagrass [6, 13]: 0 | Plant response rating, Goosegrass ([7]; Rate 62 g/ha, scale 0 to 100): 0 | Plant response rating, Goosegrass [7, 12]: 20 | Plant response rating, Goosegrass [7, 13]: 50 | Plant response rating, Foxtail, Giant ([8]; Rate 62 g/ha, scale 0 to 100): 0 | Plant response rating, Foxtail, Giant [8, 12]: 20 | Plant response rating, Foxtail, Giant [8, 13]: 60 | Plant response rating, Surinam grass ([9]; Rate 62 g/ha, scale 0 to 100): 0 | Plant response rating, Surinam grass [9, 14]: 0 | Plant response rating, Surinam grass [9, 12]: 0 | Plant response rating, Surinam grass [9, 13]: 0 | Plant response rating, Morningglory ([10]; Rate 62 g/ha, scale 0 to 100): 50 | Plant response rating, Morningglory [10, 12]: 70 | Plant response rating, Morningglory [10, 13]: 100

Source: patent US7138361B2, “Herbicidal heterocycles” (E. I. du Pont de Nemours and Company, priority 2000, dated 2006)
